Measurements taken from patent US8372867B2, “Insecticidal aryl isoxazoline derivatives” (Bayer CropScience AG, priority 2007, dated 2013).

Columns and labels:
Aulacophora femoralis = experiment: Test against Aulacophora femoralis (leaf dip); format: in vivo; settings: 100 ppm of the active compound; second instar larvae; after 7 days
Procedure: (§1) To prepare an appropriate formulation of an active compound, 1 part by weight of the active compound was mixed with the aforementioned amount of the solvent containing the aforementioned amount of the emulsifier, and the mixture was diluted to a prescribed concentration with water.
Leaves of cucumbers were soaked in a diluted aqueous solution of the prescribed concentration of an active compound prepared in the same manner as in the aforementioned tests, air-dried, and placed a plastic cup containing sterilized black soil. Into this cup, 5 larvae of Aulacophora femoralis at second instar were then released. After 7 days, the number of dead larvae was counted to calculate the death rate.

Spodoptera litura = experiment: Test against larva of Spodoptera litura (leaf dip); format: in vivo; settings: 100 ppm of the active compound; third instar larvae; after 7 days
Procedure: Solvent: Dimethylformamide 3 parts by weight
Emulsifier: Polyoxyethylene alkyl phenyl ether 1 part by weight
as §1
Leaves of sweet potate were soaked in the test agent diluted to a prescribed concentration with water, air-dried, and placed in a dish of 9 cm in diameter. Into this dish, 10 larvae of Spodoptera litura at the third instar were released and kept in a room at constant temperature of 25° C. After 2 and 4 days, more leaves of sweet potato were added, and the number of dead larvae after 7 days was counted to calculate the death rate. In this test, the test results are presented as an average of the results of two dishes per section.

Lucilia cuprina larvae = experiment: whole plant or invertebrate; settings: in Equus caballus, read-out: activity (mortality in %)
Musca domestica = experiment: whole plant or invertebrate; settings: read-out: activity (mortality in %)
[1] = system: organic phosphorus agent- and carbamate agent-resistant Myzus persicae; experiment: Test against organic phosphorus agent- and carbamate agent-resistant Myzus persicae (spray); format: in vivo; settings: 500 ppm of the active compound; adults on eggplant; 7 days at 28° C.
Procedure: as §1
About 30 to 50 adults of organic phosphorus agent- and carbamate agent-resistant Myzus persicae per seedling were inoculated to leaves of eggplants at two leaf stage cultured in a pot of 6 cm in diameter. One day after the inoculation, an ample amount of the diluted aqueous solution of the prescribed concentration of an active compound prepared in the same manner as in the aforementioned tests was sprayed with a spray gun. After the spraying, the pot was kept in a greenhouse at 28° C. for 7 days, the death rate was calculated. The test was duplicated.

Boophilus microplus = experiment: whole plant or invertebrate; settings: Rhipicephalus microplus, 168 h, read-out: activity (mortality in %)

Row | SMILES | death rate (Aulacophora femoralis) [%] | death rate (Spodoptera litura) [%] | further results
1 | CC(=O)NCc1ccc(C2=NOC(c3cccc(C#N)c3)(C(F)(F)F)C2)cc1Br (centres unmarked) [1-106] | 100 | – | –
2 | O=C(NCc1ccc(C2=NOC(c3cc(Cl)cc(Cl)c3)(C(F)(F)F)C2)cc1Br)c1cccc(Cl)c1 (centres unmarked) [1-32] | 100 | 100 | –
3 | O=CN(Cc1ccc(C2=NOC(c3cc(Cl)cc(Cl)c3)(C(F)(F)F)C2)cc1)Cc1ccccn1 (centres unmarked) [1-4] | – | 100 | –
4 | CC(=O)N(Cc1ccc(C2=NOC(c3cc(Cl)cc(Cl)c3)(C(F)(F)F)C2)cc1)C(C)=O (centres unmarked) [1-2] | 100 | 100 | –
5 | CC(=O)NCc1ccc(C2=NOC(C)(c3cc(Cl)cc(Cl)c3)C2)cc1Br (centres unmarked) [1-93] | 100 | – | –
6 | O=C(NCc1ccc(C2=NOC(c3cc(Cl)cc(Cl)c3)(C(F)(F)F)C2)cc1Br)c1ccncc1 (centres unmarked) [1-27] | 100 | 100 | –
7 | O=C(NCc1ccc(C2=NOC(c3cc(Cl)cc(Cl)c3)(C(F)(F)F)C2)cc1Br)C(F)(F)F (centres unmarked) [1-23] | 100 | 100 | –
8 | CC(=O)NCc1ccc(C2=NOC(c3cc(Cl)cc(Cl)c3)(C(F)(F)F)C2)cc1I (centres unmarked) [1-59] | 100 | 100 | –
9 | CC(=O)NCc1ccc(C2=NOC(c3cc(C(F)(F)F)cc(C(F)(F)F)c3)(C(F)(F)F)C2)cc1Br (centres unmarked) [1-101] | 100 | 100 | –
10 | O=C(NCc1ccc(C2=NOC(c3cc(Cl)cc(Cl)c3)(C(F)(F)F)C2)cc1Br)c1ccccc1 (centres unmarked) [1-24] | 100 | 100 | –
11 | O=C(NCc1ccc(C2=NOC(c3cc(Cl)cc(Cl)c3)(C(F)(F)F)C2)cc1Br)c1ccccc1F (centres unmarked) [1-28] | 100 | 100 | –
12 | CCCC(=O)NCc1ccc(C2=NOC(c3cc(Cl)cc(Cl)c3)(C(F)(F)F)C2)cc1Br (centres unmarked) [1-20] | 100 | 100 | –
13 | C=CC(=O)NCc1ccc(C2=NOC(c3cc(Cl)cc(Cl)c3)(C(F)(F)F)C2)cc1Br (centres unmarked) [1-36] | 100 | 100 | –
14 | CC(=O)NCc1ccc(C2=NOC(c3cc(Cl)cc(Cl)c3)(C(F)(F)F)C2)cc1Cl (centres unmarked) [1-58] | 100 | 100 | –
15 | CCC(=O)NCc1ccc(C2=NOC(c3cc(Cl)cc(Cl)c3)(C(F)(F)F)C2)cc1Br (centres unmarked) [1-19] | 100 | 100 | –
16 | CSC(=O)NCc1ccc(C2=NOC(c3cc(Cl)cc(Cl)c3)(C(F)(F)F)C2)cc1Br (centres unmarked) [1-43] | – | 100 | –
17 | CC(=O)NCc1ccc(C2=NOC(c3cc(Cl)cc(Cl)c3)(C(F)(F)F)C2)cc1C#N (centres unmarked) [1-62] | 100 | 100 | –
18 | CC(=O)N(Cc1ccccn1)C(C#N)c1ccc(C2=NOC(c3cc(Cl)cc(Cl)c3)(C(F)(F)F)C2)cc1 (centres unmarked) [1-11, N-(cyano{4-[5-(3,5-dichlorophenyl)-5-(trifluoromethyl)-4,5-dihydroisoxazol-3-yl]phenyl}methyl)-N-(pyridin-2-ylmethyl)-acetamide] | 100 | 100 | –
19 | Cc1ccccc1C(=O)NCc1ccc(C2=NOC(c3cc(Cl)cc(Cl)c3)(C(F)(F)F)C2)cc1Br (centres unmarked) [1-35] | 100 | 100 | –
20 | CC(=O)N(Cc1cccnc1)Cc1ccc(C2=NOC(c3cc(Cl)cc(Cl)c3)(C(F)(F)F)C2)cc1Br (centres unmarked) [1-16] | 100 | 100 | –
21 | CCC(=O)N(Cc1ccc(C2=NOC(c3cc(Cl)cc(Cl)c3)(C(F)(F)F)C2)cc1)Cc1ccccn1 (centres unmarked) [1-6] | 100 | 100 | –
22 | CC(=O)NCc1ccc(C2=NOC(c3cc(Cl)cc(Cl)c3)(C(F)(F)F)C2)cc1Br (centres unmarked) [1-13] | 100 | 100 | –
23 | O=C(NCc1ccc(C2=NOC(c3cc(Cl)cc(Cl)c3)(C(F)(F)F)C2)cc1Br)c1ccccc1Br (centres unmarked) [1-34] | 100 | 100 | –

Row | SMILES | death rate (Aulacophora femoralis) [%] | death rate (Spodoptera litura) [%] | further results
24 | O=CNCc1ccc(C2=NOC(c3cc(Cl)cc(Cl)c3)(C(F)(F)F)C2)cc1Br (centres unmarked) [1-12] | 100 | 100 | –
25 | CS(=O)(=O)NCc1ccc(C2=NOC(c3cc(Cl)cc(Cl)c3)(C(F)(F)F)C2)cc1Br (centres unmarked) [1-38] | 100 | 100 | –
26 | CC(=O)NCc1ccc(C2=NOC(c3cc(Cl)cc(Cl)c3)(C(F)(F)F)C2)cc1F (centres unmarked) [1-57] | 100 | 100 | –
27 | CNC(=O)NCc1ccc(C2=NOC(c3cc(Cl)cc(Cl)c3)(C(F)(F)F)C2)cc1Br (centres unmarked) [1-40] | 100 | 100 | –
28 | CC(=O)NCc1ccc(C2=NOC(c3cccc(C(F)(F)F)c3)(C(F)(F)F)C2)cc1Br (centres unmarked) [1-99] | 100 | 100 | –
29 | CN(C)C(=O)NCc1ccc(C2=NOC(c3cc(Cl)cc(Cl)c3)(C(F)(F)F)C2)cc1Br (centres unmarked) [1-41] | 100 | 100 | –
30 | CC(=O)N(Cc1ccc(C2=NOC(c3cc(Cl)cc(Cl)c3)(C(F)(F)F)C2)cc1Br)N=C(C)C (centres unmarked) [1-90] | – | 100 | –
31 | CC(=O)NCc1ccc(C2=NOC(c3ccc(Cl)c(Cl)c3)(C(F)(F)F)C2)cc1Br (centres unmarked) [1-94] | 100 | 100 | –
32 | CC(=O)N(Cc1ccncc1)Cc1ccc(C2=NOC(c3cc(Cl)cc(Cl)c3)(C(F)(F)F)C2)cc1Br (centres unmarked) [1-17] | 100 | 100 | –
33 | CC(C)C(=O)NCc1ccc(C2=NOC(c3cc(Cl)cc(Cl)c3)(C(F)(F)F)C2)cc1Br (centres unmarked) [1-21] | 100 | 100 | –
34 | O=C(NCc1ccc(C2=NOC(c3cc(Cl)cc(Cl)c3)(C(F)(F)F)C2)cc1Br)c1ccc(Cl)cc1 (centres unmarked) [1-33] | 100 | – | –
35 | CC(=O)N(C)Cc1ccc(C2=NOC(c3cc(Cl)cc(Cl)c3)(C(F)(F)F)C2)cc1Br (centres unmarked) [1-46] | 100 | 100 | –
36 | CC(=O)NCc1ccc(C2=NOC(c3cc(Cl)cc(Cl)c3)(C(F)(F)F)C2)cc1 (centres unmarked) [1-1, N-{4-[5-(3,5-dichlorophenyl)-5-(trifluoromethyl)-4,5-dihydroisoxazol-3-yl]benzyl}acetamide] | 100 | 100 | mortality at 100 ppm (Lucilia cuprina larvae): ≥ 80%; mortality at 100 ppm (Musca domestica): ≥ 80%
37 | O=C(NCc1ccc(C2=NOC(c3cc(Cl)cc(Cl)c3)(C(F)(F)F)C2)cc1Br)c1cccnc1 (centres unmarked) [1-26] | 100 | 100 | –
38 | CC(=O)NCc1ccc(C2=NOC(c3ccc(C(F)(F)F)cc3)(C(F)(F)F)C2)cc1Br (centres unmarked) [1-100] | 100 | 100 | –
39 | O=C(NCc1ccc(C2=NOC(c3cc(Cl)cc(Cl)c3)(C(F)(F)F)C2)cc1Br)c1ccccc1Cl (centres unmarked) [1-31] | 100 | 100 | death rate [1]: 100%
40 | CC(=O)NCc1ccc(C2=NOC(c3cccc([N+](=O)[O-])c3)(C(F)(F)F)C2)cc1Br (centres unmarked) [1-102] | 100 | – | –
41 | CC(=O)NCc1ccc(C2=NOC(c3cc(Cl)cc(Cl)c3)(C(F)(F)F)C2)cc1[N+](=O)[O-] (centres unmarked) [1-60, N-{4-[5-(3,5-dichlorophenyl)-5-(trifluoromethyl)-4,5-dihydroisoxazol-3-yl]-2-nitrobenzyl}acetamide] | 100 | 100 | mortality at 100 ppm (Lucilia cuprina larvae): ≥ 80%; mortality at 100 ppm (Boophilus microplus): ≥ 80%; mortality at 100 ppm (Musca domestica): ≥ 80%
42 | CC(=O)NCc1ccc(C2=NOC(c3cccc(Cl)c3)(C(F)(F)F)C2)cc1Br (centres unmarked) [1-98] | 100 | 100 | –
43 | O=C(NCc1ccc(C2=NOC(c3cc(Cl)cc(Cl)c3)(C(F)(F)F)C2)cc1Br)c1ccccn1 (centres unmarked) [1-25] | – | 100 | –
44 | CC(=O)NCc1ccc(C2=NOC(c3cc(Cl)cc(Cl)c3)(C(F)(F)F)C2)cc1C (centres unmarked) [1-63, N-{4-[5-(3,5-dichlorophenyl)-5-(trifluoromethyl)-4,5-dihydroisoxazol-3-yl]-2-methylbenzyl}acetamide] | 100 | 100 | mortality at 100 ppm (Lucilia cuprina larvae): ≥ 80%; mortality at 100 ppm (Boophilus microplus): ≥ 80%; mortality at 100 ppm (Musca domestica): ≥ 80%
45 | CC(=O)N(Cc1ccccn1)Cc1ccc(C2=NOC(c3cc(Cl)cc(Cl)c3)(C(F)(F)F)C2)cc1Br (centres unmarked) [1-15, N-{2-bromo-4-[5-(3,5-dichlorophenyl)-5-(trifluoromethyl)-4,5-dihydroisoxazol-3-yl]benzyl}-N-(pyridin-2-ylmethyl)acetamide] | 100 | 100 | mortality at 100 ppm (Lucilia cuprina larvae): ≥ 80%; mortality at 100 ppm (Musca domestica): ≥ 80%
46 | CC(=O)NCc1ccc(C2=NOC(C)(c3cccc(F)c3)C2)cc1Br (centres unmarked) [1-97] | 100 | 100 | –
